Test results from patent US20250059194A1, “ULK1 AND ULK2 INHIBITORS” (Board of Trustees of Michigan State University, priority 2021, published 2025).
Where a name gives a salt, the structure may show the parent alone.

Legend:
[1] = molecular target: ULK1 (Homo sapiens (Human), UniProt O75385); assay: ULK1 IC50; format: biochemical
[2] = molecular target: ULK2 (Homo sapiens (Human), UniProt Q8IYT8); assay: ULK2 IC50; format: biochemical
[3] = system: Cell; assay: Cell EC50; format: cell-based
[4] = Kinetic Solubility; format: physicochemical; settings: kinetic from dmso stock

ULK2, sequence (Q8IYT8 whole entry): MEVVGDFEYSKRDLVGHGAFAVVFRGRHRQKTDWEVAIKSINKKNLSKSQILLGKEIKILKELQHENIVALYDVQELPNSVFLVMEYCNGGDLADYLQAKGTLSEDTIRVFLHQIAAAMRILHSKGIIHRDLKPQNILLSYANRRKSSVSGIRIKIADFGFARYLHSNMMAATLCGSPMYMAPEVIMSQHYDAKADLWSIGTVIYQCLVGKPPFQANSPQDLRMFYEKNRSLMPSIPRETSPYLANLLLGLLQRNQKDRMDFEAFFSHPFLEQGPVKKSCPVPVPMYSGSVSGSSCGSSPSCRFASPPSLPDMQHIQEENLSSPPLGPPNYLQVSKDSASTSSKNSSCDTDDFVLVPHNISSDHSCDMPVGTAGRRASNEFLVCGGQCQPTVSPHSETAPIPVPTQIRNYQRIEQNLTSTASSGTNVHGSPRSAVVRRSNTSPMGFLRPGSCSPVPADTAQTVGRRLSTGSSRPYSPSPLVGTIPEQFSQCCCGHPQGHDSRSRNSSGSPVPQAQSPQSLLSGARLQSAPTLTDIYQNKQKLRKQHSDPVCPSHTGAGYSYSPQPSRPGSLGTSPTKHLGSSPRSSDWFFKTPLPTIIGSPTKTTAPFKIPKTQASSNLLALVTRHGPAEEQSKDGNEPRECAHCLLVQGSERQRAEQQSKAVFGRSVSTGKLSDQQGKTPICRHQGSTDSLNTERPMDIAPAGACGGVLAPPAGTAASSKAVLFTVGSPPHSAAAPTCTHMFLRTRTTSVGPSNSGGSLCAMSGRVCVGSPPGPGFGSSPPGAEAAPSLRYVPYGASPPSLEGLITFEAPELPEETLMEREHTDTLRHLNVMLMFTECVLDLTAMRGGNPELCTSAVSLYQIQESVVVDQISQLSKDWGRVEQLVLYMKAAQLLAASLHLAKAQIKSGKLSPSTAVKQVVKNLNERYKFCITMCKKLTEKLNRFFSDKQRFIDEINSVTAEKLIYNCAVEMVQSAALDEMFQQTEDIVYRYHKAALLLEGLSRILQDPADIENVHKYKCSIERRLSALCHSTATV
ULK1, sequence (O75385 whole entry): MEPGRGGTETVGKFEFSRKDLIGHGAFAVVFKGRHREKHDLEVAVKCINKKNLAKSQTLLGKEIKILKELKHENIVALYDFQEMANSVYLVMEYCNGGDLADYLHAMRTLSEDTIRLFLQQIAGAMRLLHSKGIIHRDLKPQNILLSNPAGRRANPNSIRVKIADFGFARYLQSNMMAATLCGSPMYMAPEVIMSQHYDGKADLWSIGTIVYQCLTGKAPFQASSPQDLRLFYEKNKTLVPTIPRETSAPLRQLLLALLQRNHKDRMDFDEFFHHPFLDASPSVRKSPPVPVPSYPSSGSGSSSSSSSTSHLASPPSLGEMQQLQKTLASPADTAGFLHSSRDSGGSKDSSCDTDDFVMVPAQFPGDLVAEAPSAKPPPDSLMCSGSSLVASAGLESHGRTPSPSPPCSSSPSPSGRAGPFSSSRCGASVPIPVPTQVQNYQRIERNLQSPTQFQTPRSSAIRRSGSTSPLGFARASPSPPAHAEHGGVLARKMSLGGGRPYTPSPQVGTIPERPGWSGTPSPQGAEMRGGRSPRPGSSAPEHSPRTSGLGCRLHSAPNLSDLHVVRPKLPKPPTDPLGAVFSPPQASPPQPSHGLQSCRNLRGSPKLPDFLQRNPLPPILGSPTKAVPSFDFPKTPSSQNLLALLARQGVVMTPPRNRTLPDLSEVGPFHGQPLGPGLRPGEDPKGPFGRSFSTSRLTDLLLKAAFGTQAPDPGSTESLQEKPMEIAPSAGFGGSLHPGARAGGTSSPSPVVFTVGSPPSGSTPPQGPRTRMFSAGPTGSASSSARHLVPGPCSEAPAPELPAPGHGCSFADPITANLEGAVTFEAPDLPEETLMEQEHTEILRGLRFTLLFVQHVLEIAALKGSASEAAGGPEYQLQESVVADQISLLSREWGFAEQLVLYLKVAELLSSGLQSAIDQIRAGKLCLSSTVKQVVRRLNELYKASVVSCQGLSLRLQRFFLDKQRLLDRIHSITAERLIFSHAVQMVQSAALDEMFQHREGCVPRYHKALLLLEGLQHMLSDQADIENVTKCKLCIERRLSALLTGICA

Row | Structure (SMILES) | IC50 [1] | IC50 [2] | EC50 [3] | solubility kinetic [4]
1 | CC(C)(C)OC(=O)N[C@@H]1CCCC[C@@H]1NC(=O)c1cc(-c2cnn3cc(N4CCN(C(=O)OC(C)(C)C)CC4)cnc23)cs1 [tert-butyl 4-[3-(5-{[(1S,2R)-2-{[(tert-butoxy)carbonyl]amino}cyclohexyl]carbamoyl}thiophen-3-yl)pyrazolo[1,5-a]pyrimidin-6-yl]piperazine-1-carboxylate] | 100 to 499 nM | 500 to 1000 nM |  | 
2 | CC(C)(CO)NC(=O)c1cc(-c2cnn3cc(N4CCN(C(=O)OC(C)(C)C)CC4)cnc23)cs1 [tert-butyl 4-(3-{5-[(1-hydroxy-2-methylpropan-2-yl)carbamoyl]thiophen-3-yl}pyrazolo[1,5-a]pyrimidin-6-yl) piperazine-1-carboxylate] | 1 to 49 nM | 100 to 499 nM |  | 
3 | CCC(CC)NC(=O)c1cc(-c2cnn3cc(N4CCNCC4)cnc23)cs1 [hydrochloride] | 50 to 99 nM |  | 500 to 1000 nM | > 300 µM
4 | CCC(CC)NC(=O)c1cc(-c2cnn3cc(-n4ccccc4=O)cnc23)cs1 [4-[6-(2-oxo-1,2-dihydropyridin-1-yl)pyrazolo[1,5-a]pyrimidin-3-yl]-N-(pentan-3-yl)thiophene-2-carboxamide] | 500 to 1000 nM |  |  | 
5 | CCC(CC)NC(=O)c1cc(-c2cnn3cc(N4CCC(N)CC4)cnc23)cs1 [4-[6-(4-aminopiperidin-1-yl)pyrazolo[1,5-a]pyrimidin-3-yl]-N-(pentan-3-yl)thiophene-2-carboxamide hydrochloride] | 1 to 49 nM | 50 to 99 nM | 100 to 499 nM | 203 µM
6 | CC[C@H](NC(=O)c1cc(-c2cnn3cc(Nc4ccccc4)cnc23)cs1)C(F)(F)F | 1 to 49 nM |  |  | 
7 | O=C(N[C@@H](C1CC1)C(F)(F)F)c1cc(-c2cnn3cc(Nc4ccccc4)cnc23)cs1 | 1 to 49 nM |  |  | 
8 | NC1CCN(c2cnc3c(-c4csc(C(=O)N[C@@H](C5CC5)C(F)(F)F)c4)cnn3c2)CC1 | 1 to 49 nM |  |  | 
9 | CCC(NC(=O)c1cc(-c2cnn3cc(Nc4ccccc4)cnc23)cs1)C1CC1 (stereo not drawn) | 1 to 49 nM |  |  | 
10 | CCC(CC)NC(=O)c1cc(-c2cnn3cc(N4CCCC4)cnc23)cs1 [N-(pentan-3-yl)-4-[6-(pyrrolidin-1-yl)pyrazolo[1,5-a]pyrimidin-3-yl]thiophene-2-carboxamide] | 500 to 1000 nM |  |  | 
11 | O=C(N[C@@H](C1CC1)C(F)(F)F)c1cc(-c2cnn3cc(Nc4ccc(F)cc4)cnc23)cs1 | 1 to 49 nM |  |  | 
12 | CCC(CC)NC(=O)c1cc(-c2cnn3cc(N4CCN(C(=O)OC(C)(C)C)CC4)cnc23)cs1 [tert-butyl 4-(3-{5-[(pentan-3-yl)carbamoyl]thiophen-3-yl}pyrazolo[1,5-a]pyrimidin-6-yl) piperazine-1-carboxylate] | 1 to 49 nM |  | > 1000 nM | 
13 | N[C@@H]1CCCC[C@@H]1NC(=O)c1cc(-c2cnn3cc(N4CCNCC4)cnc23)cs1 [N-[(1S,2R)-2-aminocyclohexyl]-4-[6-(piperazin-1-yl)pyrazolo[1,5-a]pyrimidin-3-yl]thiophene-2-carboxamide dihyrochloride] | 1 to 49 nM | 1 to 49 nM | 1 to 49 nM | > 300 µM
14 | CCC(CC)NC(=O)c1cc(-c2cnn3cc(N4CCC(NC(=O)OC(C)(C)C)CC4)cnc23)cs1 | 50 to 99 nM |  | > 1000 nM | 
15 | CCC(CC)NC(=O)c1cc(-c2cnn3cc(NC4CC4)cnc23)cs1 [4-[6-(cyclopropylamino)pyrazolo[1,5-a]pyrimidin-3-yl]-N-(pentan-3-yl)thiophene-2-carboxamide] | 100 to 499 nM |  |  | 
16 | CCC(CC)NC(=O)c1cc(-c2cnn3cc(Nc4ccccc4)cnc23)cs1 [N-(pentan-3-yl)-4-[6-(phenylamino)pyrazolo[1,5-a]pyrimidin-3-yl]thiophene-2-carboxamide] | 1 to 49 nM | 1 to 49 nM | 100 to 499 nM | 
17 | CC(C)(CO)NC(=O)c1cc(-c2cnn3cc(N4CCNCC4)cnc23)cs1 [N-(1-hydroxy-2-methylpropan-2-yl)-4-[6-(piperazin-1-yl)pyrazolo[1,5-a]pyrimidin-3-yl]thiophene-2-carboxamide hydrochloride] | 100 to 499 nM | 500 to 1000 nM |  | 
18 | O=C(N[C@@H](C1CC1)C(F)(F)F)c1cc(-c2cnn3cc(N4CCNCC4)cnc23)cs1 | 1 to 49 nM |  |  | 
